Results reported in patent publication US20240173432A1, “Compositions and Methods for Treatment of Myotonic Dystrophy Type 1 with CRISPR/SluCas9” (Vertex Pharmaceuticals Incorporated, priority 2021, published 2024).

Assays:
[1] = tested on: CTG repeat in the 3′ UTR of human DMPK gene; experiment: Dual-cut screening: CTG repeat excision efficiency by loss-of-signal ddPCR; assay type: cell-based; settings: sgRNA pair, primary DM1 patient myoblasts; for Excision efficiency (by ddPCR): 3 μM DNA-PKi Compound 6 for 48 hours; for Excision efficiency by ddPCR (Vehicle): vehicle (DMSO)
Protocol: RNPs were assembled with recombinant SluCas9 protein and chemically modified sgRNAs at a ratio of 1:3 (protein:sgRNA). For SINGLE-cut screening, RNP complexes were assembled with 30 pmol of SluCas9 and 90 pmol of sgRNA in P5 Primary Cell Nucleofector Solution (Lonza). After incubation at room temperature for 20 minutes, 10 μL of RNP complex were mixed with two hundred thousand of primary myoblasts resuspended in 10 μL of P5 Nucleofector Solution. For DOUBLE-cut screening, RNP complexes were first assembled for individual sgRNAs with 20 pmol of SluCas9 protein and 60 pmol of sgRNAs in 5 μL of P5 Nucleofector Solution. After incubation at room temperature for 20 minutes, the two RNP complexes (one for upstream sgRNA and one for downstream sgRNA) were mixed at 1:1 ratio and then further mixed with two hundred thousand of primary myoblasts resuspended in 10 μL of P5 Nucleofector Solution.
The Nucleofector 96-well Shuttle System (Lonza) was used to deliver the SluCa9/sgRNA RNPs into primary DM1 patient myoblasts using the nucleofection program CM138. Following nucleofection, myoblasts from each well of nucleofection shuttle were split into six wells of the 96-well cell culture plate (Greiner, 655090) coated with matrigel. The first three wells were treated with DMSO for 48 hrs before changing to fresh myoblast growth medium, and the other three wells were treated with 3 μM of DNA-PKi Compound 6 for 48 hrs before changing to fresh myoblast growth medium. 72 hrs post nucleofection, two wells of DMSO-treated myoblasts and two wells of DNA-PKi-treated myoblasts from each nucleofection were harvested for genomic DNA extraction using the Kingfisher Flex purification system (Thermal Fisher), whereas one well of DMSO-treated myoblasts and one well of DNA-PKi-treated myoblasts were stained for RNA foci by FISH staining.
The primers and probes of ddPCR are designed using the online primer design software Primer3Plus (http://www.bioinformatics.nl/cgi-bin/primer3plus/primer3plus.cgi). In some embodiments, two target primers/probe sets were used to detect CTG repeat excision, and a reference primers/probe set were used to amplify a region located in Exon 1 of human DMPK gene and to serve as a reference control for the target sets. The 24 μL of ddPCR reaction consists of 12 μL of Supermix for Probes (no dUTP) (Bio-Rad Laboratories), 1 μL of Reference primers mix (21.6 μM), 1 μL of Reference probe (6 μM), 1 μL of Target primers mix (21.6 μM), 1 μL of Target probe (6 μM), and 8 μL of sample genomic DNA. Droplets were generated using probe oil with the QX200 Droplet Generator (Bio-Rad Laboratories). Droplets were transferred to a 96-well PCR plate, sealed and cycled in a C1000 deep well Thermocycler (Bio-Rad Laboratories) under the following cycling protocol: 1 cycle at 95° C. for 10 min; 40 cycles of 94° C. for 30 see, and 58° C. for 1 min; 1 cycle at 98° C. for 10 min (for enzyme inactivation). The cycled plate was then transferred and read in the FAM and HEX channels using the Bio-Rad QX200 Droplet Reader (Bio-Rad Laboratories). ddPCR analysis is performed with the Bio-Rad QuantaSoft Pro Software.
To assess the efficiency of SluCas9 sgRNA pairs for inducing CTG repeat excision, Dual-cut screening was performed in which individual SluCas9 sgRNAs and recombinant SluCas9 protein were assembled into ribonucleoprotein (RNP) and delivered into primary DM1 patient myoblasts. Nucleofected myoblasts were treated with either DMSO (vehicle) or 3 μM of DNA-dependent Protein Kinase Inhibitor (DNA-PKi) Compound 6 for 48 hours. 72 hours post-nucleofection, myoblasts were subjected to either genomic DNA isolation or RNA foci staining by fluorescence in situ hybridization (FISH).
CRISPR repeat excision efficiency was assessed for each of the 88 pairs (FIG. 8A-B and Table 5). CTG repeat excision efficiency percentages are shown for vehicle (DMSO; white bars) and with DNA-PKi (black bars) (FIG. 8B and Table 5).

[2] = tested on: CUG foci in primary DM1 patient myoblasts; experiment: Dual-cut screening: FISH staining of CUG RNA foci; assay type: cell-based, human; settings: sgRNA pair, primary DM1 patient myoblasts; for % of CUG foci free nuclei (DNA-PKi): 3 μM DNA-PKi Compound 6 for 48 hours; for % of CUG foci free nuclei (Vehicle): vehicle (DMSO)
How it was run: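 SluCas9 RNPs (protein:sgRNA 1:3; 20 pmol SluCas9 + 60 pmol sgRNA per guide, paired 1:1) nucleofected into primary DM1 patient myoblasts, then DMSO or 3 μM DNA-PKi Compound 6 for 48 h. At 72 h post-nucleofection cells fixed, FISH-stained with Cy3-PNA(CAG)5 probe plus anti-MBNL1 and Hoechst; % CUG foci-free nuclei by high-content confocal imaging.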

SluU08 + SluD48 (guide 1 GCCCCGTTGGAAGACTGAGTGC; guide 2 GAGAGCAGCGCAAGTGAGGAGG; guide RNA; listed as DNA, chemistry not fully specified)
Excision efficiency (by ddPCR) [1]: 55.92 | Excision efficiency by ddPCR (Vehicle) [1]: 42.14 | % of CUG foci free nuclei (DNA-PKi) [2]: 87.63% | % of CUG foci free nuclei (Vehicle) [2]: 64.93%

SluU08 + SluD56 (guide 1 GCCCCGTTGGAAGACTGAGTGC; guide 2 CCAGCCGGCTCCGCCCGCTTCG; guide RNA; listed as DNA, chemistry not fully specified)
Excision efficiency (by ddPCR) [1]: 52.26 | Excision efficiency by ddPCR (Vehicle) [1]: 32.16 | % of CUG foci free nuclei (DNA-PKi) [2]: 83.74% | % of CUG foci free nuclei (Vehicle) [2]: 46.21%

SluU08 + SluD68 (guide 1 GCCCCGTTGGAAGACTGAGTGC; guide 2 CCTGTAGCCTGTCAGCGAGTCG; guide RNA; listed as DNA, chemistry not fully specified)
Excision efficiency (by ddPCR) [1]: 62.56 | Excision efficiency by ddPCR (Vehicle) [1]: 42.63 | % of CUG foci free nuclei (DNA-PKi) [2]: 88.24% | % of CUG foci free nuclei (Vehicle) [2]: 65.1%

SluU08 + SluD73 (guide 1 GCCCCGTTGGAAGACTGAGTGC; guide 2 CCAAAACGTGGATTGGGGTTGT; guide RNA; listed as DNA, chemistry not fully specified)
Excision efficiency (by ddPCR) [1]: 67.61 | Excision efficiency by ddPCR (Vehicle) [1]: 50.12 | % of CUG foci free nuclei (DNA-PKi) [2]: 89.94% | % of CUG foci free nuclei (Vehicle) [2]: 65.42%

SluU08 + SluD83 (guide 1 GCCCCGTTGGAAGACTGAGTGC; guide 2 GTGGGGACAGACAATAAATACC; guide RNA; listed as DNA, chemistry not fully specified)
Excision efficiency (by ddPCR) [1]: 70.46 | Excision efficiency by ddPCR (Vehicle) [1]: 45.64 | % of CUG foci free nuclei (DNA-PKi) [2]: 90.38% | % of CUG foci free nuclei (Vehicle) [2]: 68.14%

SluU08 + SluD100 (guide 1 GCCCCGTTGGAAGACTGAGTGC; guide 2 GTCCAGAGCTTTGGGCAGATGG; guide RNA; listed as DNA, chemistry not fully specified)
Excision efficiency (by ddPCR) [1]: 66.38 | Excision efficiency by ddPCR (Vehicle) [1]: 41.65 | % of CUG foci free nuclei (DNA-PKi) [2]: 88.59% | % of CUG foci free nuclei (Vehicle) [2]: 66.31%

SluU10 + SluD06 (guide 1 CCCGTTGGAAGACTGAGTGCCC; guide 2 CCAGGCTGAGGCCCTGACGTGG; guide RNA; listed as DNA, chemistry not fully specified)
Excision efficiency (by ddPCR) [1]: 63.05 | Excision efficiency by ddPCR (Vehicle) [1]: 48.58 | % of CUG foci free nuclei (DNA-PKi) [2]: 86.35% | % of CUG foci free nuclei (Vehicle) [2]: 61.37%

SluU10 + SluD14 (guide 1 CCCGTTGGAAGACTGAGTGCCC; guide 2 ATGGGCAAACTGCAGGCCTGGG; guide RNA; listed as DNA, chemistry not fully specified)
Excision efficiency (by ddPCR) [1]: 61.58 | Excision efficiency by ddPCR (Vehicle) [1]: 43.14 | % of CUG foci free nuclei (DNA-PKi) [2]: 84.04% | % of CUG foci free nuclei (Vehicle) [2]: 62.95%

SluU10 + SluD18 (guide 1 CCCGTTGGAAGACTGAGTGCCC; guide 2 TGGAGGATGGAACACGGACGGC; guide RNA; listed as DNA, chemistry not fully specified)
Excision efficiency (by ddPCR) [1]: 60.59 | Excision efficiency by ddPCR (Vehicle) [1]: 51.55 | % of CUG foci free nuclei (DNA-PKi) [2]: 89.08% | % of CUG foci free nuclei (Vehicle) [2]: 71.69%

SluU10 + SluD32 (guide 1 CCCGTTGGAAGACTGAGTGCCC; guide 2 CTTGTGCATGACGCCCTGCTCT; guide RNA; listed as DNA, chemistry not fully specified)
Excision efficiency (by ddPCR) [1]: 72.52 | Excision efficiency by ddPCR (Vehicle) [1]: 48.62 | % of CUG foci free nuclei (DNA-PKi) [2]: 90.08% | % of CUG foci free nuclei (Vehicle) [2]: 77.29%

SluU10 + SluD34 (guide 1 CCCGTTGGAAGACTGAGTGCCC; guide 2 CGCGCCAGACGCTCCCCAGAGC; guide RNA; listed as DNA, chemistry not fully specified)
Excision efficiency (by ddPCR) [1]: 68.59 | Excision efficiency by ddPCR (Vehicle) [1]: 52.12 | % of CUG foci free nuclei (DNA-PKi) [2]: 88.63% | % of CUG foci free nuclei (Vehicle) [2]: 80.9%

SluU10 + SluD48 (guide 1 CCCGTTGGAAGACTGAGTGCCC; guide 2 GAGAGCAGCGCAAGTGAGGAGG; guide RNA; listed as DNA, chemistry not fully specified)
Excision efficiency (by ddPCR) [1]: 62.29 | Excision efficiency by ddPCR (Vehicle) [1]: 44.14 | % of CUG foci free nuclei (DNA-PKi) [2]: 88.02% | % of CUG foci free nuclei (Vehicle) [2]: 69.11%

SluU10 + SluD56 (guide 1 CCCGTTGGAAGACTGAGTGCCC; guide 2 CCAGCCGGCTCCGCCCGCTTCG; guide RNA; listed as DNA, chemistry not fully specified)
Excision efficiency (by ddPCR) [1]: 54.92 | Excision efficiency by ddPCR (Vehicle) [1]: 33.89 | % of CUG foci free nuclei (DNA-PKi) [2]: 83.68% | % of CUG foci free nuclei (Vehicle) [2]: 49.83%

SluU10 + SluD68 (guide 1 CCCGTTGGAAGACTGAGTGCCC; guide 2 CCTGTAGCCTGTCAGCGAGTCG; guide RNA; listed as DNA, chemistry not fully specified)
Excision efficiency (by ddPCR) [1]: 61.29 | Excision efficiency by ddPCR (Vehicle) [1]: 42.37 | % of CUG foci free nuclei (DNA-PKi) [2]: 89.5% | % of CUG foci free nuclei (Vehicle) [2]: 68.15%

SluU10 + SluD73 (guide 1 CCCGTTGGAAGACTGAGTGCCC; guide 2 CCAAAACGTGGATTGGGGTTGT; guide RNA; listed as DNA, chemistry not fully specified)
Excision efficiency (by ddPCR) [1]: 64.77 | Excision efficiency by ddPCR (Vehicle) [1]: 46.13 | % of CUG foci free nuclei (DNA-PKi) [2]: 88.46% | % of CUG foci free nuclei (Vehicle) [2]: 69.97%

SluU10 + SluD83 (guide 1 CCCGTTGGAAGACTGAGTGCCC; guide 2 GTGGGGACAGACAATAAATACC; guide RNA; listed as DNA, chemistry not fully specified)
Excision efficiency (by ddPCR) [1]: 68.8 | Excision efficiency by ddPCR (Vehicle) [1]: 47.63 | % of CUG foci free nuclei (DNA-PKi) [2]: 89.5% | % of CUG foci free nuclei (Vehicle) [2]: 74.17%

SluU10 + SluD100 (guide 1 CCCGTTGGAAGACTGAGTGCCC; guide 2 GTCCAGAGCTTTGGGCAGATGG; guide RNA; listed as DNA, chemistry not fully specified)
Excision efficiency (by ddPCR) [1]: 64.25 | Excision efficiency by ddPCR (Vehicle) [1]: 44.65 | % of CUG foci free nuclei (DNA-PKi) [2]: 88.24% | % of CUG foci free nuclei (Vehicle) [2]: 67.81%

SluU21 + SluD06 (guide 1 GCTCGGAGCGGTTGTGAACTGG; guide 2 CCAGGCTGAGGCCCTGACGTGG; guide RNA; listed as DNA, chemistry not fully specified)
Excision efficiency (by ddPCR) [1]: 66.01 | Excision efficiency by ddPCR (Vehicle) [1]: 46.6 | % of CUG foci free nuclei (DNA-PKi) [2]: 88.47% | % of CUG foci free nuclei (Vehicle) [2]: 48.27%

SluU21 + SluD14 (guide 1 GCTCGGAGCGGTTGTGAACTGG; guide 2 ATGGGCAAACTGCAGGCCTGGG; guide RNA; listed as DNA, chemistry not fully specified)
Excision efficiency (by ddPCR) [1]: 63.05 | Excision efficiency by ddPCR (Vehicle) [1]: 54.02 | % of CUG foci free nuclei (DNA-PKi) [2]: 89.6% | % of CUG foci free nuclei (Vehicle) [2]: 61.25%
